Patent US5563130A, “Methods for inhibiting angiogenesis, proliferation of endothelial or tumor cells and tumor growth” (American Cyanamid Company, priority 1994, dated 1996)
Structures can show the parent of a compound that is named as a salt.

What was measured:
Format in all cases: cell-based
HTB 16 = assay: Antiproliferative activity in human tumor cell line HTB 16; conditions: ovarian tumor line; PROTOCOL 1 and PROTOCOL 2
Procedure: (§1) PROTOCOL 1, 2, and 3 are described in greater detail hereinbelow. In general, according to PROTOCOLS 1 and 2, the target ABAE and/or Human Tumor cells are exposed to the compound of Formula I for 48 hours. PROTOCOL 3 exposes ABAE cell to the compound for 4 days. A detailed description of the protocol is as follows:
(§2) Antiproliferative Activity in Human Tumor and Adult Bovine Aortic Endothelial (ABAE) Cell Lines
(§3) The antiproliferative activity of the compounds of Formula I of the present invention is evaluated in a panel comprised of human tumor cell lines and an adult bovine aortic endothelial cell line (ABAE). The human tumor cell lines are from:
(§4) All cell lines are maintained in log phase in RPMI 1640 media, supplemented with 5% fetal calf serum, penicillin/streptomycin and 2 mM L-glutamine. Cultures are renewed after 20 passages with cells from a fresh stock of batch-frozen early passage cells. Cell lines are routinely checked for mycoplasma contamination (Genprobe). In a laminar flow hood, cells (1-5×10^4) are plated into 96-well microtiter plates in a volume of 0.1 ml/well with a bulk microtiter dispenser (Denley). […] At this concentration, dimethylsulfoxide has no effect on cell growth. Compounds are added using a Tomtec dispenser which simultaneously dispenses from one 96-well plate, containing the drug dilutions, to the plates containing the cells. After two days of continuous drug exposure, 50% cold trichloroacetic acid (TCA) is added to 10% final concentration to fix the cells, and after 60 minutes at 4° C., the TCA is aspirated and the plates are washed 5 times with deionized water using a microtiter plate washer. The number of cells on the plate are quantitated using a protein dye-binding assay (Monks et al., 1991). A 0.4% solution of the dye, sulforhodamine B, in glacial acetic acid is added to the plates, and the plates are washed 5 times with 1% glacial acetic acid using the automatic plate washed. The bound stain is solubilized with 0.1 ml of 10 mM Tris base. The optical densities are read from an automatic spectrophotometric plate reader (Dynatech) directly to a main frame computer (VAX 8600).
(§5) Positive controls, that include standard chemotherapeutic drugs (i.e., adriamycin, cisplatin, etc.), are included in every experiment.
(§6) Background optical density measurements (complete media-cells, and complete media+drug-cells) are automatically subtracted from the appropriate control and test wells. Mean values and standard errors are determined from duplicate wells. A measure is also made of the optical density at time when the drugs are added. The number of cells after treatment (P), as % of control, is calculated for every concentration of drug, as follows: [formula] wherein: T is optical density measurement for treated cells after 48 hours;
(§7) C is optical density measurement for untreated cells after 48 hours;
(§8) Co is optical density measurement for cells at the time of drug addition.
(§9) IC50 of growth inhibition is calculated from the sets of P values using the RS-1 data package (BBN Software).
(§10) The antiproliferative activity of the compounds of Formula I is evaluated in a panel comprised of human tumor cell lines and an adult bovine aortic endothelial cell line (ABAE) as listed in PROTOCOL 1. This assay is a modification of PROTOCOL 1. The modifications include:
(§11) 1) each concentration for each compound is tested in a single well;
(§12) 2) compounds are tested at 20, 4, 0.8, 0.16 microgram/ml and additionally in some experiments at 100 and 0.32 microgram/ml;
(§13) 3) samples are pipetted into a 96-well plate for each of the cell lines by a Beckman Biomek 1000 SL robot;
(§14) 4) after fixing with TCA each well is washed with 0.35 ml distilled water twice, not five times;
(§15) 5) after staining with sulforhodamine B each well is washed 3 times, not five times; […]

MIP = assay: Antiproliferative activity in human colon tumor cell line MIP; conditions: PROTOCOL 1 and PROTOCOL 2
Procedure: as §1, §2, §3
(§16) 2) Colon tumors: MIP, CaCo2, and SW620.
as §4, §5, §6, §7, §8, §9, §10, §11, §12, §13, §14, §15

SW620 = assay: Antiproliferative activity in human colon tumor cell line SW620; conditions: PROTOCOL 1 and PROTOCOL 2
Procedure: as §1, §2, §3, §16, §4, §5, §6, §7, §8, §9, §10, §11, §12, §13, §14, §15

[1] = tested on: Adult Bovine Aortic Endothelial (ABAE) cell line; assay: Antiproliferative activity in ABAE cells, PROTOCOL 1 (48 h, SRB)
Procedure: PROTOCOL 1, 2, and 3 are described in greater detail hereinbelow. In general, according to PROTOCOLS 1 and 2, the target ABAE and/or Human Tumor cells are exposed to the compound of Formula I for 48 hours. PROTOCOL 3 exposes ABAE cell to the compound for 4 days. A detailed description of the protocol is as follows: Antiproliferative Activity in Human Tumor and Adult Bovine Aortic Endothelial (ABAE) Cell Lines The antiproliferative activity of the compounds of Formula I of the present invention is evaluated in a panel comprised of human tumor cell lines and an adult bovine aortic endothelial cell line (ABAE). […] The number of cells on the plate are quantitated using a protein dye-binding assay (Monks et al., 1991). […] The optical densities are read from an automatic spectrophotometric plate reader (Dynatech) directly to a main frame computer (VAX 8600). […] Mean values and standard errors are determined from duplicate wells. […] The number of cells after treatment (P), as % of control, is calculated for every concentration of drug, as follows: [formula] wherein: T is optical density measurement for treated cells after 48 hours; C is optical density measurement for untreated cells after 48 hours; Co is optical density measurement for cells at the time of drug addition. IC50 of growth inhibition is calculated from the sets of P values using the RS-1 data package (BBN Software). […]

A2780S = assay: Antiproliferative activity in human ovarian tumor cell line A2780S; conditions: PROTOCOL 1 and PROTOCOL 2
Procedure: as §1, §2, §3, §4, §5, §6, §7, §8, §9, §10, §11, §12, §13, §14, §15

Human Tumor Cell lines = assay: Antiproliferative activity in panel of human tumor cell lines; conditions: average over the tested human tumor cell lines
Procedure: as §1, §2, §3, §16, §4, §5, §6, §7, §8, §9, §10, §11, §12, §13, §14, §15

A2780/DDP = assay: Antiproliferative activity in human ovarian tumor cell line A2780/DDP; conditions: PROTOCOL 1 and PROTOCOL 2
Procedure: as §1, §2, §3, §4, §5, §6, §7, §8, §9, §10, §11, §12, §13, §14, §15

## CCCNCC(=O)Nc1ccc2c(c1O)C(=O)C1=C(O)[C@]3(O)C(=O)C(C(N)=O)=C(O)[C@@H](N(C)C)C3CC1C2.Cl.Cl (stereo partly shown) [Example 4]
HTB 16
  HTB 16 IC50: 3.2 µg/mL
MIP
  MIP IC50: 3.4 µg/mL
SW620
  SW620 IC50: 1.3 µg/mL
[1]
  IC50 PROTOCOL 1: 5.2 µg/mL
A2780S
  A2780S IC50: 3.2 µg/mL
Human Tumor Cell lines
  AVERAGE IC50 FOR TUMOR CELL LINES: 2.85 µg/mL
A2780/DDP
  A2780/DDP IC50: 3.1 µg/mL

## CN(C)[C@@H]1C(O)=C(C(N)=O)C(=O)[C@@]2(O)C(O)=C3C(=O)c4c(ccc(NC(=O)CN5CCCCC5)c4O)CC3CC12 (stereo partly drawn) [Example 3, [7S-(7alpha,10aalpha)]-N-9-(Aminocarbonyl)-7-(dimethylamino)-5,5a,6,6a,7,10,10a,12-octahydro-1,8,10a,11-tetrahydroxy-10,12-dioxo-1-piperidineacetamidedihydrochloride]
HTB 16
  HTB 16 IC50: 2.3 µg/mL
MIP
  MIP IC50: 3.0 µg/mL
SW620
  SW620 IC50: 2.8 µg/mL
A2780S
  A2780S IC50: 2.5 µg/mL
Human Tumor Cell lines
  AVERAGE IC50 FOR TUMOR CELL LINES: 2.7 µg/mL
A2780/DDP
  A2780/DDP IC50: 2.7 µg/mL

## CC(C)CNCC(=O)Nc1ccc2c(c1O)C(=O)C1=C(O)[C@]3(O)C(=O)C(C(N)=O)=C(O)[C@@H](N(C)C)C3CC1C2.Cl.Cl (stereo partly drawn) [Example 9, [b 4S-(4alpha,12aalpha)]-4-(Dimethylamino)-1,4,4a,5,5a,-6,11,12a-octahydro-3,10,12,12a-tetrahydroxy-9-[[[(2-methylpropyl)amino]acetyl]amino]-1,11-dioxo-2-naphthacenecarboxamide dihydrochloride]
HTB 16
  HTB 16 IC50: 5.0 µg/mL
MIP
  MIP IC50: 5.75 µg/mL
SW620
  SW620 IC50: 5.7 µg/mL
A2780S
  A2780S IC50: 3.5 µg/mL
Human Tumor Cell lines
  AVERAGE IC50 FOR TUMOR CELL LINES: 5.5 µg/mL
A2780/DDP
  A2780/DDP IC50: 7.7 µg/mL

## CN(C)CC(=O)Nc1ccc2c(c1O)C(=O)C1=C(O)[C@]3(O)C(=O)C(C(N)=O)=C(O)[C@@H](N(C)C)C3CC1C2.Cl.Cl (stereo partly drawn) [Example 8, [4S-(4alpha,121aalpha)]-9-[[(Dimethylamino)acetyl]-amino]-4-(dimethylamino)-1,4,4a,5,5a,6,11,12a-octahydro-3,10,12,12a-tetrahydroxy-1,11-dioxo-2-naphthacenecarboxamide dihydrochloride]
HTB 16
  HTB 16 IC50: 4.1 µg/mL
MIP
  MIP IC50: 6.0 µg/mL
SW620
  SW620 IC50: 5.0 µg/mL
A2780S
  A2780S IC50: 4.8 µg/mL
Human Tumor Cell lines
  AVERAGE IC50 FOR TUMOR CELL LINES: 5.1 µg/mL
A2780/DDP
  A2780/DDP IC50: 5.8 µg/mL

## CN(C)[C@@H]1C(O)=C(C(N)=O)C(=O)[C@@]2(O)C(O)=C3C(=O)c4c(ccc(NC(=O)CNCC5CC5)c4O)CC3CC12.Cl.Cl (stereo partly drawn) [Example 7, [4S-(4alpha,12aalpha)]-9-[[[(Cyclopropylmethyl)amino)acetyl]amino]-4-(dimethylamino)-1,4,4a,5,5a,6,11,12a-octahydro-3,10,12,12a-tetrahydroxy-1,11-dioxo-2-naphthacenecarboxamide dihydrochloride]
HTB 16
  HTB 16 IC50: 3.3 µg/mL
MIP
  MIP IC50: 6.3 µg/mL
SW620
  SW620 IC50: 3.9 µg/mL
A2780S
  A2780S IC50: 4.9 µg/mL
Human Tumor Cell lines
  AVERAGE IC50 FOR TUMOR CELL LINES: 4.5 µg/mL
A2780/DDP
  A2780/DDP IC50: 3.9 µg/mL

## CN(C)[C@@H]1C(O)=C(C(N)=O)C(=O)[C@@]2(O)C(O)=C3C(=O)c4c(ccc(NC(=O)CN5CCCC5)c4O)CC3CC12.Cl.Cl (stereo partly shown) [Example 5]
HTB 16
  HTB 16 IC50: 2.3 µg/mL
MIP
  MIP IC50: 3.0 µg/mL
SW620
  SW620 IC50: 2.8 µg/mL
A2780S
  A2780S IC50: 2.5 µg/mL
Human Tumor Cell lines
  AVERAGE IC50 FOR TUMOR CELL LINES: 2.7 µg/mL
A2780/DDP
  A2780/DDP IC50: 2.7 µg/mL
